Laboratory results reported in patent publication US9586925B2 (priority 2013, dated 2017).
Read-outs that look alike come from different tables or passages of the source.

How the values were obtained:
[1] = system: Male Wistar rats; format: in vivo; conditions: rat
[2] = target: Human recombinant acetylcholinesterase (Homo sapiens (Human), UniProt P22303); assay: biochemical
[3] = target: human recombinant butyrylcholinesterase (Homo sapiens (Human), UniProt P06276); assay: biochemical; format: biochemical
human recombinant butyrylcholinesterase, sequence (P06276 29-602 limits assumed): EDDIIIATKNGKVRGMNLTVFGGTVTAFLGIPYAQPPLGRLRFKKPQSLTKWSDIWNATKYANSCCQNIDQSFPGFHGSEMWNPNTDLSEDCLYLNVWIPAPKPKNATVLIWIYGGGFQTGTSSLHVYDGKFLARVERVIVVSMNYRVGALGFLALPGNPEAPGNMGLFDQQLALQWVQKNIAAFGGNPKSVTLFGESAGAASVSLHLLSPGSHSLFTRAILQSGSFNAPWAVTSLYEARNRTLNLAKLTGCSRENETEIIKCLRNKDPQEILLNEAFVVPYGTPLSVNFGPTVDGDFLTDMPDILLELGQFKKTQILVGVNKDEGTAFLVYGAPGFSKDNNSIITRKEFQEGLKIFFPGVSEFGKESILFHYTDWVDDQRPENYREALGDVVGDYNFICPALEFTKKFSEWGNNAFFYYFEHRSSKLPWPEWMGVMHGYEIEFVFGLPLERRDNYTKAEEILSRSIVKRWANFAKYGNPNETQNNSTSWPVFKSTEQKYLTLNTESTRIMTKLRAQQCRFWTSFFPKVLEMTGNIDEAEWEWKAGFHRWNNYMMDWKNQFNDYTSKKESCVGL

Human recombinant acetylcholinesterase, sequence (P22303 32-614 limits assumed): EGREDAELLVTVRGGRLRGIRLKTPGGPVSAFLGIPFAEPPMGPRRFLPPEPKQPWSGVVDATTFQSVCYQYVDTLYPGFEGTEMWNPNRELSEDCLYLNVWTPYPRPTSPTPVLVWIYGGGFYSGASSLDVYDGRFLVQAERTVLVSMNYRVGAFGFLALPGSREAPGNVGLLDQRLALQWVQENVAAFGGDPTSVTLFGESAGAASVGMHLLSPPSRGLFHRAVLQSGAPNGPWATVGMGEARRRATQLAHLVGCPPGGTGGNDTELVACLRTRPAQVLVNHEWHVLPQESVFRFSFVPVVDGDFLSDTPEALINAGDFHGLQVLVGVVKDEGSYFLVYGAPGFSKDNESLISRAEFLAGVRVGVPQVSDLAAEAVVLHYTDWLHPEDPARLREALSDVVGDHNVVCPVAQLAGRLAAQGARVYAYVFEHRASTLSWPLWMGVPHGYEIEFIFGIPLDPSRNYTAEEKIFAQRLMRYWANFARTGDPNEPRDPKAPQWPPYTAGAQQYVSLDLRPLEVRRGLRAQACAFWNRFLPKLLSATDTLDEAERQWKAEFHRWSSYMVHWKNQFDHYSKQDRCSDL

| Structure (SMILES) | Reverse (%) (percentage antagonism of scopolamine-induced latency deficit) ([1]; in vivo) | IC50 [2] [µM] | IC50 [3] [µM] | BCHE inhibitory potential in comparison to the current drugs (galantamine, rivastigmine, donepezil) [3] | further results |
| --- | --- | --- | --- | --- | --- |
| CC(c1ccc2c(c1)oc(=O)c1ccccc12)N(C)C (racemic) [FAR-02-2RS, (±)-3-(1-(dimethylamino)ethyl)-6H-benzo[c]chromen-6-one] | 70 | 10.9 | 17.9 | – | – |
| CCN(C)C(=O)Oc1cccc([C@H](C)N(C)C)c1 [Rivastigmine, reference compound] | 85 | – | – | – | – |
| COc1cc2c(cc1OC)C(=O)C(CC1CCN(Cc3ccccc3)CC1)C2 (stereo not shown) [Donepezil, reference compound] | 52 | – | – | – | – |
| CC(c1cc(O)cc2oc(=O)c3ccccc3c12)N(C)C (racemic) [FAR-01-1OH, (±)-1-(1-(dimethylamino)ethyl)-3-hydroxy-6H-benzo[c]chromen-6-one] | – | 33.1 | > 40 | – | – |
| COc1cc(C(C)N(C)C)cc2oc(=O)c3ccccc3c12 (racemic) [FAR-01-2, (±)-3-(1-(dimethylamino)ethyl)-1-methoxy-6H-benzo[c]chromen-6-one] | 71 | 2.8 | 21.1 | – | – |
| C[C@@H](c1ccc2c(c1)oc(=O)c1ccccc12)N(C)C [FAR-02-2S, (S)-3-(1-(dimethylamino)ethyl)-6H-benzo[c]chromen-6-one] | 71 | – | – | – | IC50 ([2]; read-out: ACHE Inhibitory Activity IC50): 7.9 µM; IC50 ([3]; read-out: BCHE Inhibitory Activity IC50): 16.2 µM |
| COc1cc(C(C)N(C)C)c2c(c1)oc(=O)c1ccccc12 (racemic) [FAR-01-1, (±)-1-(1-(dimethylamino)ethyl)-3-methoxy-6H-benzo[c]chromen-6-one] | – | – | 24.7 | – | – |
| CCN(C)C(=O)Oc1cc(C(C)N(C)C)cc2oc(=O)c3ccccc3c12 (racemic) [FAR-01-2CA, (±)-3-(1-(dimethylamino)ethyl)-6-oxo-6H-benzo[c]chromen-1-yl ethyl(methyl)carbamate] | – | – | 12.7 | at least comparable and/or better inhibitory potential | Reverse (%) (percentage antagonism of scopolamine-induced latency deficit) ([1]; compound 1 mg/kg oral, scopolamine 1 mg/kg i.p., latency measured for 5 minutes): 53% |
| CCN(C)C(=O)Oc1cc(C(C)N(C)C)c2c(c1)oc(=O)c1ccccc12 (racemic) [FAR-01-1CA, (±)-1-(1-(dimethylamino)ethyl)-6-oxo-6H-benzo[c]chromen-3-yl ethyl(methyl)carbamate] | – | > 40 | 8.5 | at least comparable and/or better inhibitory potential | selectivity BCHE versus ACHE [3]: possess selectivity to inhibit the BCHE |
| CC(c1cc(O)c2c(c1)oc(=O)c1ccccc12)N(C)C (racemic) [FAR-01-2OH, (±)-3-(1-(dimethylamino)ethyl)-1-hydroxy-6H-benzo[c]chromen-6-one] | 49 | 18.9 | 4.2 | at least comparable and/or better inhibitory potential | – |
